Data published in paper PMC11542830, “3-nitropyridine analogues as novel microtubule-targeting agents” (PLOS ONE, 2024).
Read-outs that look alike come from different tables or passages of the source.

Assays:
primary cortical neurons = test: Neurite outgrowth assay; type: cell-based, Sprague-Dawley rat; conditions: Primary cortical neuron, rat primary cortical neurons, 72 hours
Method: Neurite outgrowth assay was performed by Fluofarma (Pessac, France). Primary cortical neurons were harvested from E19 Sprague-Dawley (Janvier Labs) rat embryos, dissociated and plated at 10,000 per well in a tissue-culture treated 96 well plate, in neuronal medium (SM2 matrix independent growth medium, Stem Cell Technologies). Neurons were followed by phase contrast imaging with 1 image acquired every 4 hours, using an Incucyte Zoom (Essen BioScience) with a 20x objective. Four fields per well were acquired. After 24 hours, cells were treated with test compounds and neurite outgrowth was followed for 72 hours post-treatment. All measures were performed in triplicate in one experiment.
Neurite outgrowth kinetics were analyzed from each phase contrast image using the Neurotrack module of the Incucyte Zoom platform. Neurite length and branch points were obtained for each time point. The area under the curve (AUC) was calculated in each experimental condition (GraphPad Prism 6, GraphPad Software).

tubulin = test: Fluorescence-based tubulin polymerization assay; type: biochemical; conditions: purified tubulin, fluorescent reporter, vs DMSO control
Method: Tubulin polymerization in vitro was analyzed using the fluorescence-based tubulin polymerization assay (Cytoskeleton, Inc.), according to the manufacturer’s guidelines. Fluorescence was read on a SaFire II microplate reader (Tecan).

[1] = read-out: IC50 for branch point formation
[2] = read-out: IC50 for neurite length

Row | SMILES | IC50 (primary cortical neurons; [1]) | IC50 (primary cortical neurons; [2]) | effect on tubulin polymerization in vitro (tubulin)
1 | CC[C@]1(O)C[C@@H]2CN(CCc3c([nH]c4ccccc34)[C@@](C(=O)OC)(c3cc4c(cc3OC)N(C)[C@H]3[C@@](O)(C(=O)OC)[C@H](OC(C)=O)[C@]5(CC)C=CCN6CC[C@]43[C@@H]65)C2)C1 [vinblastine, reference compound] | 0.7 nM | 0.9 nM | marked decrease in final polymer formation
2 | CC[C@]1(O)C[C@H]2CN(CCc3c([nH]c4ccccc34)[C@@](C(=O)OC)(c3cc4c(cc3OC)N(C=O)[C@H]3[C@@](O)(C(=O)OC)[C@H](OC(C)=O)[C@]5(CC)C=CCN6CC[C@]43[C@@H]65)C2)C1 [vincristine, reference compound] | 0.2 nM | 0.2 nM | –
